# Test results reported in BindingDB's records for doi:10.1021/acs.jmedchem.6b01169 (Gilead Sciences, 2016).
# pIC50: −log10 of the molar value.
# Molecular target: Phosphatidylinositol 3-kinase regulatory subunit alpha/4,5-bisphosphate 3-kinase catalytic subunit delta isoform (Homo sapiens, UniProt P27986+O00329)
# Assay: Inhibition of human full length PI3K p110delta/p85alpha using phosphatidylinositol […] as substrate measured after 30 mins by TR-FRET assay
# Sequence of Phosphatidylinositol 3-kinase regulatory subunit alpha/4,5-bisphosphate 3-kinase catalytic subunit delta isoform (P27986 whole entry, canonical isoform): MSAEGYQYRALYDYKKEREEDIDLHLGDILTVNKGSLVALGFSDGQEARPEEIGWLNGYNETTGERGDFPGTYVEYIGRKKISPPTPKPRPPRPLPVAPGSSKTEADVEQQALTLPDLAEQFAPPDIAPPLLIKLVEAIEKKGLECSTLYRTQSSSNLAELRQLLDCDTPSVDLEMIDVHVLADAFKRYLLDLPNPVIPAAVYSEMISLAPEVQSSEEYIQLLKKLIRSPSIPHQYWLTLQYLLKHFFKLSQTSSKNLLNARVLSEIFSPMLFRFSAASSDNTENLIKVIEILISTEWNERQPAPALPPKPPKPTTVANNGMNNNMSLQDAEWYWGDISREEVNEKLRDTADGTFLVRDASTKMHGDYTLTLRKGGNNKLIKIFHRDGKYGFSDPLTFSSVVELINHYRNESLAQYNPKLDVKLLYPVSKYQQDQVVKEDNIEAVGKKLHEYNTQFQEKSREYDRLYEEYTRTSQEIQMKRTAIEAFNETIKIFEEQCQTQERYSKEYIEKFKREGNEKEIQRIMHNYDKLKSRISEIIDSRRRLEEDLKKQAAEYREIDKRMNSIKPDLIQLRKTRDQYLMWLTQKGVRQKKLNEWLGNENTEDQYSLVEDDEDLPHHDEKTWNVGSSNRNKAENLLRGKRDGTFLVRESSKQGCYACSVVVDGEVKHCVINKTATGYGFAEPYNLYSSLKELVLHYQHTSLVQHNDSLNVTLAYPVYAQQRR
# Sequence of Phosphatidylinositol 3-kinase regulatory subunit alpha/4,5-bisphosphate 3-kinase catalytic subunit delta isoform (O00329 whole entry, canonical isoform): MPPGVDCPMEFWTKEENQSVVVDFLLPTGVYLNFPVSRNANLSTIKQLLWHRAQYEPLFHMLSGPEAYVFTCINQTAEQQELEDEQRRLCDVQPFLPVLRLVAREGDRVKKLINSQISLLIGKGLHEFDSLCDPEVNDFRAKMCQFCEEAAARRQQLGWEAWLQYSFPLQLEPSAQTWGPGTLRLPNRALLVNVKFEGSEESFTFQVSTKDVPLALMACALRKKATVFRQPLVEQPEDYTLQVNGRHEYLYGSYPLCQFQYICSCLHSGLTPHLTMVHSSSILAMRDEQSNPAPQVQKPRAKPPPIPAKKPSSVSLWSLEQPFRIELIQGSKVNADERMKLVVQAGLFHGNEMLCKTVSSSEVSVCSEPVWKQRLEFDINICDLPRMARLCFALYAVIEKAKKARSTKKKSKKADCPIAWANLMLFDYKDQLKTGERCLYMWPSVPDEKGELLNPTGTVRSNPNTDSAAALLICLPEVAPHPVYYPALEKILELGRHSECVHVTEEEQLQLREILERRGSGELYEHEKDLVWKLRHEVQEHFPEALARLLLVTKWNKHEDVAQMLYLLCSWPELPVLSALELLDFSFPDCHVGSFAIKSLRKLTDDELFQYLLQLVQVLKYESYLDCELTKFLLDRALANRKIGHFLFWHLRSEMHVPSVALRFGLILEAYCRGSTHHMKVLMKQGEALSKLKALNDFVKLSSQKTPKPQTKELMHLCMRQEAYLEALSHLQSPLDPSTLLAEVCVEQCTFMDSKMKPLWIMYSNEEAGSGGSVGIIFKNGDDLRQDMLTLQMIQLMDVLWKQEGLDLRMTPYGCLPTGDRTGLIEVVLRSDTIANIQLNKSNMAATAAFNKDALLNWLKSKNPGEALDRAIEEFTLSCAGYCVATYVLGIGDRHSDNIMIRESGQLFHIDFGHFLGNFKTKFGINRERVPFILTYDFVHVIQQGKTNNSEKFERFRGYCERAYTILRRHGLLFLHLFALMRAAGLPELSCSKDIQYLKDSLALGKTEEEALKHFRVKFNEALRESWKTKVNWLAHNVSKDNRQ
row,pIC50,Structure (SMILES)
1,9.22,"C[C@H](Nc1nc(N)nc(N)c1C#N)c1nc2cccc(Cl)c2c(=O)n1-c1cccnc1 [US9221795, 1]"
2,8.10,"C[C@H](Nc1nc(N)nc(N)c1C#N)c1nc2cccc(Cl)c2c(=O)n1-c1cncc(Cl)c1 [US9221795, 13]"
3,8.40,"COc1cncc(-n2c([C@H](C)Nc3nc(N)nc(N)c3C#N)nc3cccc(Cl)c3c2=O)c1 [US9221795, 14]"
4,8.30,"C[C@H](Nc1nc(N)nc(N)c1C#N)c1nc2cccc(Cl)c2c(=O)n1-c1cncc(C2CC2)c1 [US9221795, 19]"
5,8.22,"C[C@H](Nc1nc(N)nc(N)c1C#N)c1nc2c(Cl)cccc2c(=O)n1-c1cccnc1 [US9221795, 22]"
6,9.40,"C[C@H](Nc1nc(N)nc(N)c1C#N)c1nc2c(F)ccc(Cl)c2c(=O)n1-c1cccnc1 [US9221795, 24]"
7,8.10,"C[C@H](Nc1nc(N)nc(N)c1C#N)c1nc2c(F)ccc(F)c2c(=O)n1-c1cccnc1 [US9221795, 25]"
8,9.40,"Cc1ccncc1-n1c([C@H](C)Nc2nc(N)nc(N)c2C#N)nc2cccc(Cl)c2c1=O [US9221795, 40]"
